Reference: patent US12168008B2, “Oxabicycloheptanes for modulation of immune response” (LIXTE BIOTECHNOLOGY, INC., priority 2016, dated 2024)

Key:
CT26 tumor = test: CT26 syngeneic tumor model: tumor growth and survival; assay type: in vivo, mouse
Experimental: To test the hypothesis that inhibition of PP2A with LB-100 can enhance immune-mediated antitumor responses, rice were implanted with CT26 tumor cells. CT26 is a murine colon adenocarcinoma expressing low level of PD-L1 and is resistant to anti-PD1 therapy. After about 13 days, mice with tumor size between 30-100 mm^3 were randomized into four treatment groups (PBS control, LB-100 only—0.16 mg/kg, anti-PD-1 only—10 mg/kg, or a combination of both). Treatment was given every 2 days for a total of 28 days. Tumor size was assessed every two days (FIGS. 20A-C). Single agent treatment with anti-PD1 was ineffective in reducing tumor burden or increasing survival. LB-100 alone was able to increase median survival from 21 to 33 days (p=0.02). […]
Tumor Inoculation and Animal Studies—CT26 tumor cells (0.5×10^6) were injected subcutaneously in the right side of the abdomen. […] Tumor size were monitored with a digital caliper every 2-3 d and expressed as volume (length×width^2×0.5). […]
LB-100 and aPD-1 combination treatment synergistically elicit rejection of CT26 tumors: To test the hypothesis that PP2A inhibition synergizes with aPD-1 therapy in vivo in aPD-1 refractory tumors, a CT26 tumor was used, which is a murine colorectal carcinoma with high PD-L1 expression but limited response to aPD-1 therapy. […] Tumor growth was assessed every 2 days (FIG. 24A). […]

[1] = tested on: tumor infiltrating lymphocytes; test: Flow cytometry of tumor infiltrating lymphocytes, spleen and draining lymph node in CT26-bearing mice; assay type: in vivo, mouse
Experimental: The treatment effect was assessed on tumor infiltrating lymphocytes (FIGS. 23A-B). CT26 tumor-bearing mice were treated with LB-100 and/or anti-PD-1 antibodies as above. After 12 days of treatment, tumors were analyzed by FACS. […] In addition, given the known importance of PP2A in Treg, the effect of LB-100 and/or anti-PD-1 treatment was examined on the amount of Tregs present in the tumor. […] This effect is similar in degree to the effect on Tregs depletion by anti-PD-1 or the combination.
Enhanced activation of lymphocytes with combination treatment: To address the cellular mechanism mediating tumor rejection by the LB-100/aPD-1 combination, the status of the immune system in the secondary lymphoid organs and in the tumor were examined. Mice were implanted with CT26 tumors and treated with LB-100 and/or aPD-1 as described above. On day 3, after two treatments, the spleens, tumor draining lymph nodes (dLN) and tumors were harvested and analyzed by flow cytometry (FIG. 26-27). In the secondary lymphoid tissue, a greater activation of CD8+ T cells in mice treated with the combination regimen compared to controls was observed, as indicated by greater frequency of CD44+CD62L-CD8+ T cells (FIG. 26A-C). […] There was no difference in frequency of CD44+CD62L− subset in CD4+ T cells in both the spleen and dLN (FIGS. 28A and 29A). Immune check point markers, including expression of PD-1, CTLA4, TIM3 and Ox40 on CD8+ and CD4+ T cells were examined in the tumor draining lymph node and spleen (FIGS. 28 and 29).
Isolation of TILs—Mice were injected in the right thoracic flank with 0.5×10^6 CT26 cells and treated as above after tumors reached between 50-100 mm^3. After 2 treatments, mice were sacrificed and tumors excised. Tumors were subjected to mechanical disruption using a GentleMACS Dissociator (Miltenyi Biotec) in presence of enzymatic digestion using Tumor Dissociation Kit (Miltenyi Biotec). […] Cells were analyzed by flow cytometry (LSRII; BD Bioscience). […]

[2] = tested on: Primary human T cells and Jurkat T cells; test: In vitro studies PP2A and CTLA4 (Example 2); assay type: cell-based
Experimental: Primary human T cells and Jurkat T cells are treated with LB-100 and T-cell activation levels measured. LB-100 increases activation of the T cells.
Primary human T cells and Jurkat T cells are treated with LB-100 and PP2A:CTLA-4 interaction is assessed. LB-100 decreases the interaction of PP2A and CTLA-4.
Primary human T cells and Jurkat T cells are treated with LB-100 and levels of PP2A phosphorylation are measured. LB-100 increases phosphorylation in the T cells.

`CN1CCN(C(=O)C2C(C(=O)O)[C@H]3CC[C@@H]2O3)CC1` (some centres unmarked) [LB-100] was tested. Which median survival (CT26 tumor; control 21 days, treatment every 2 days) did it give?
Its median survival is 33 days.

And the “tumor growth, single agent” value (CT26 tumor; mouse, in vivo)?
Its value is “did not significantly decrease tumor growth”.

And the “Tregs in the tumor” value ([1]; after 12 days of treatment, control 14.7)?
The value was 2.1%.

And the “CD44+CD62L-CD8+ T cells in the spleen” value ([1]; day 3, after two treatments, control 13.0)?
The value was 16.6%.

And the “PD-1 expression in CD4+ and CD8+ TILs” value ([1]; mouse, in vivo)?
Its value is “did not further alter PD-1 expression”.

And the “PP2A:CTLA-4 interaction” value [2]?
Its value is “decreases”.

What about the T-cell activation levels [2] of the same molecule?
The T-cell activation levels was “increases”.

And the “levels of PP2A phosphorylation in the T cells” value [2]?
Its value is “increases”.
